# According to PMC10778976, “BAY-3827 and SBI-0206965: Potent AMPK Inhibitors That Paradoxically Increase Thr172 Phosphorylation” (International Journal of Molecular Sciences, 2023):
# Tests used:
# [1] = target: T1, human α2β2γ1 complex (Homo sapiens, UniProt O43741+P54619+P54646); experiment: Cell-free kinase assay of bacterially expressed human α2β2γ1 complex phosphorylated on Thr172 by CaMKK2; type: biochemical; conditions: ATP 200 µM; read-out: IC50, inhibition of human α2β2γ1 complex
# T1 construct: (His)6
# Text: (§1) AMPK assays measured the transfer of radioactivity from labelled ATP to a peptide substrate, which was separated from unreacted ATP by binding to P81 paper. This assay was described previously, except that we used [γ-^33P]ATP rather than [γ-^32P]ATP. The peptide substrate was the AMARA peptide in all experiments other than one, which analyzed allosteric activation by AMP (Figure 2A), when, for technical reasons, the SAMS peptide was used instead. With purified preparations of AMPK, it was assayed in solution, but for assays in cell lysates (Figure 3D and Figure 4D), it was first immunoprecipitated using a mixture of anti-α1 and -α2 antibodies and assayed in resuspended immunoprecipitates. After the initial immunoprecipitation of lysate containing 80 µg of protein, the pellets were washed twice with 1 mL of high salt IP buffer (50 mM Tris-HCL, pH 7.4 at 4 °C, 1 M NaCl, 1 mM EDTA, 1 mM EGTA, 50 mM NaF, 5 mM Na pyrophosphate, 1 mM dithiothreitol, 0.1% (v/v) Triton X-100) and twice with 1 mL of low salt IP buffer (as above but only 150 mM NaCl), followed by a final wash in 1 mL of assay buffer (50 mM Na Hepes, pH7.4, 150 mM NaCl, 1 mM dithiothreitol, 0.02% (v/v) Brij-35). After each wash, the pellet was recovered via centrifugation (16,000× g, 3 min) and then resuspended. […]
# [2] = system: purified rat liver AMPK; experiment: Allosteric activation of rat liver AMPK by AMP with and without BAY-3827; type: biochemical; conditions: BAY-3827 30 nM
# Text: (§2) AMPK assays measured the transfer of radioactivity from labelled ATP to a peptide substrate, which was separated from unreacted ATP by binding to P81 paper. This assay was described previously, except that we used [γ-^33P]ATP rather than [γ-^32P]ATP. The peptide substrate was the AMARA peptide in all experiments other than one, which analyzed allosteric activation by AMP (Figure 2A), when, for technical reasons, the SAMS peptide was used instead. With purified preparations of AMPK, it was assayed in solution, but for assays in cell lysates (Figure 3D and Figure 4D), it was first immunoprecipitated using a mixture of anti-α1 and -α2 antibodies and assayed in resuspended immunoprecipitates. After the initial immunoprecipitation of lysate containing 80 µg of protein, the pellets were washed twice with 1 mL of high salt IP buffer (50 mM Tris-HCL, pH 7.4 at 4 °C, 1 M NaCl, 1 mM EDTA, 1 mM EGTA, 50 mM NaF, 5 mM Na pyrophosphate, 1 mM dithiothreitol, 0.1% (v/v) Triton X-100) and twice with 1 mL of low salt IP buffer (as above but only 150 mM NaCl), followed by a final wash in 1 mL of assay buffer (50 mM Na Hepes, pH7.4, 150 mM NaCl, 1 mM dithiothreitol, 0.02% (v/v) Brij-35). After each wash, the pellet was recovered via centrifugation (16,000× g, 3 min) and then resuspended. The final resuspended pellets from each biological replicate were divided into two aliquots (40 µg lysate protein) to provide technical replicates and assayed as above.
# [3] = target: T2, “naïve” (unphosphorylated), bacterially expressed human α1β1γ1 complex (Homo sapiens, UniProt Q13131+Q9Y478); experiment: Allosteric activation of naïve (unphosphorylated) α1β1γ1 complex by MK-8722 with and without BAY-3827; type: biochemical; conditions: BAY-3827 30 nM
# T2 construct: (His)6
# Text: as §2
# [4] = parameters: method as in ref 32 = [32]; 32. Lemos C. Schulze A. Overview for BAY-3827, an Inhibitor of PRKAA1, RPS6KA1 Available online: https://www.sgc-ffm.uni-frankfurt.de/chemProbes#!specificprobeoverview/BAY-3827 (accessed on 14 Novembe); conditions: rat hepatocytes; cited from earlier work
# [5] = target: T3, human α2β2γ1 complex (Homo sapiens, UniProt P54646); experiment: Cell-free kinase assay of bacterially expressed human α2β2γ1 complex phosphorylated on Thr172 by CaMKK2; type: biochemical; conditions: ATP 200 µM; read-out: IC50, inhibition of human α2β2γ1 complex
# T3 construct: (His)6
# Text: as §1
# [6] = system: phosphorylation of Ser29 on ATG14, an established target for ULK1, in U2OS cells; experiment: ATG14 phosphorylation (ULK1 target) in U2OS cells (Western blot); type: cell-based, human; conditions: read-out: IC50, inhibition of ATG14 (Ser29) phosphorylation
# Description: T-Rex U2OS cells carrying a Flp Recombinase Target (FRT) site were generated as described previously and grown in Dulbecco’s Modified Eagle’s Medium (DMEM) supplemented with 10% (v/v) FBS and 1% (v/v) penicillin/streptomycin.
# Cells were lysed rapidly in situ on culture plates using ice-cold lysis medium containing phosphatase inhibitors, as described previously.
# SDS-PAGE was performed using precast NuPAGE Tris-acetate 3–8% gradient polyacrylamide gels in Tris-acetate running buffer when analyzing ACC, GBF1, or Raptor, or NuPAGE Bis-Tris 4–12% gradient polyacrylamide gels in the MOPS buffer system (ThermoFisher Scientific, Waltham, MA, USA) for other proteins (unless stated otherwise). Proteins were transferred to nitrocellulose membranes using the iBlot 2 system (ThermoFisher Scientific). Membranes were enhanced if necessary using SuperSignal Western Blot Enhancer (ThermoFisher Scientific), then blocked for 1 h in Li-Cor Odyssey blocking buffer. The membranes were probed with the appropriate primary antibody (0.1–1 mg/mL) overnight at 4 °C. […] Protein concentrations were determined by Coomassie Blue binding with bovine serum albumin as a standard. The cellular levels of AMP and ATP were determined via direct perchloric acid extraction from cells, with LC:MS used to estimate the levels of each nucleotide.
# [7] = target: human α1β1γ1 complex (Homo sapiens, UniProt Q13131); conditions: previous estimate; read-out: IC50, inhibition of α1β1γ1; cited from earlier work
# [8] = parameters: method as in PMID 35802287; conditions: cited from earlier work
# T2 sequence (Q13131 whole entry): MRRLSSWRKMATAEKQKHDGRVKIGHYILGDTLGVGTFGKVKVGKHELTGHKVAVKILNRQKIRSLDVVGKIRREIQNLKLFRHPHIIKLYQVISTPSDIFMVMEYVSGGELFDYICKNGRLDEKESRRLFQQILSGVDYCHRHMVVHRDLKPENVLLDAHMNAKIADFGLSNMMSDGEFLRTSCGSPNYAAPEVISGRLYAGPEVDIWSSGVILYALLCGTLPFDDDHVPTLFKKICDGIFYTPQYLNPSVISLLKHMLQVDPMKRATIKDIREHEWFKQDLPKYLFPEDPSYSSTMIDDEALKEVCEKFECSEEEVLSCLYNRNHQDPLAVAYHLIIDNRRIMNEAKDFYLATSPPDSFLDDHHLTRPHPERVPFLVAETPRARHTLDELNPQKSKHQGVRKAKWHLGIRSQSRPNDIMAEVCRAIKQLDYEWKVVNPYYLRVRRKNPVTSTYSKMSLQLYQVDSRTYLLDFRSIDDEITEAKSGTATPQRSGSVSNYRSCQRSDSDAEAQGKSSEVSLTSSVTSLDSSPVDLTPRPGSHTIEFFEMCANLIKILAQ
# T2 sequence (Q9Y478 2-270): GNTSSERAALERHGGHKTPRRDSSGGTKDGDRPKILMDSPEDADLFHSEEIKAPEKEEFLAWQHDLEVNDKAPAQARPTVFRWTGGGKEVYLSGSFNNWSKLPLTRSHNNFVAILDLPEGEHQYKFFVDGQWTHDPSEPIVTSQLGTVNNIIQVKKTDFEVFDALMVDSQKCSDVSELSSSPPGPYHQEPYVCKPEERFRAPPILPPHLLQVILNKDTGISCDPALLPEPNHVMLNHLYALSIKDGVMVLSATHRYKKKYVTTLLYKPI
# T2 sequence (P54619 whole entry partner): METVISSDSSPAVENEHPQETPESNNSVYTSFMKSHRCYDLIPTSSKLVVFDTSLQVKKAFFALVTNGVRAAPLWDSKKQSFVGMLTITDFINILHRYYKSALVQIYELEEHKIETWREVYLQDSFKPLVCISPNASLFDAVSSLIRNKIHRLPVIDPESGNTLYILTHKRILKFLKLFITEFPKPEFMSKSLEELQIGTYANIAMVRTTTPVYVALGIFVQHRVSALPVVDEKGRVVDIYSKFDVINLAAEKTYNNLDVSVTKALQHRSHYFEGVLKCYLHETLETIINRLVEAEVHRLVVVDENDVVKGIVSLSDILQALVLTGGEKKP
# Chain of human α1β1γ1 complex (Q13131 whole entry): as the sequence (Q13131 whole entry) above
# Chain of human α1β1γ1 complex (P54619 whole entry, further chain): as the sequence (P54619 whole entry partner) above
# Chain of human α1β1γ1 complex (Q9Y478 2-270, further chain): as the sequence (Q9Y478 2-270) above
# T1 sequence (P54646 whole entry): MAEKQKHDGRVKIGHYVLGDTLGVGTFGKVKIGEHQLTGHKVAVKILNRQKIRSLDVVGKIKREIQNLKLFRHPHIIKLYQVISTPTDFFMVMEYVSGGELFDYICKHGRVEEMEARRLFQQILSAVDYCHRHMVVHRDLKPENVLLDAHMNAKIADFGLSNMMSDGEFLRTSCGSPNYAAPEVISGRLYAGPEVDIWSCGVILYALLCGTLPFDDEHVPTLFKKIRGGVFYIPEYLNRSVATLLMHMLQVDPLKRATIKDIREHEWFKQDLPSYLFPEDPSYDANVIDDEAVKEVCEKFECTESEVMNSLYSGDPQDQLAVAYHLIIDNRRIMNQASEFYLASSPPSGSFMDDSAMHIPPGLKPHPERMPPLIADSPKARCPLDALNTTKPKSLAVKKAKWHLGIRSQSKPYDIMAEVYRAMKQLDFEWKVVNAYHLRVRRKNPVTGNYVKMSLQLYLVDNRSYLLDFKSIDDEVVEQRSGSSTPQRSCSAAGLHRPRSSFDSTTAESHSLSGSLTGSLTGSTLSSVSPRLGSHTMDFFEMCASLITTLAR
# T1 sequence (O43741 whole entry partner): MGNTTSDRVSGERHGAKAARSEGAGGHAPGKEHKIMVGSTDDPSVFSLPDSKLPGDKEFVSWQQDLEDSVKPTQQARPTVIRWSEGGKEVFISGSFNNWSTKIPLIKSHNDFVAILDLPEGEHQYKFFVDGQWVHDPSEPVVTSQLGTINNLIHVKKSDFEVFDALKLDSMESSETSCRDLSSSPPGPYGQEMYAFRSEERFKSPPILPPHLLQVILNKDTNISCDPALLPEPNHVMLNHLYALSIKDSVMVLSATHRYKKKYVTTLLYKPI
# T1 sequence (P54619 whole entry partner): as the sequence (P54619 whole entry partner) above
# T3 sequence (P54646 whole entry): as the sequence (P54646 whole entry) above
# T3 sequence (O43741 whole entry partner): as the sequence (O43741 whole entry partner) above
# T3 sequence (P54619 whole entry partner): as the sequence (P54619 whole entry partner) above
IC50 [1] [nM],fold increase of EC50 for AMP [2] [fold],fold increase of EC50 for MK-8722 [3] [fold],basal activity (without MK-8722) ([3]; control without inhibitor 11) [nmol/min/mg],SMILES,basal activity (without AMP) ([2]; control without inhibitor 135) [nmol/min/mg],in vitro clearance (CL) [4] [L/h/kg],oral bio-availability (Fmax) [4] [%],IC50 [5] [nM],IC50 [6] [µM],IC50 [7] [nM],elimination half-life [8],relative oral availability [8]
70,5,7,8.7,CCc1ccccc1C(=O)Nc1n[nH]c2c(C)c(F)c(C3C(C#N)=C(C)N(C)C(C)=C3C#N)cc12 [BAY-3827],46,3.3,21,,,,,
,,,,CNC(=O)c1ccccc1Oc1nc(Nc2cc(OC)c(OC)c(OC)c2)ncc1Br [SBI-0206965],,,,206,67,300,short,low
